Results: ChEMBL document CHEMBL5357017, “Small Molecule Fluorescent Ligands for the Atypical Chemokine Receptor 3 (ACKR3)” (ACS Med Chem Lett, 2024)
Active and inactive are the calls of the source. The rule behind the calls is not given here.

How the values were obtained:
[1] = biological target: T1, Atypical chemokine receptor 3 (Homo sapiens, UniProt P25106); test: (§1) Binding affinity to NanoLuc tagged human wild type ACKR3 expressed in HEK293G cells using furimazine as NanoLuc substrate preincubated for 1 hr in dark in presence of (R)-N-(3-(2-fluorophenyl)-2methylallyl)-3,4,5-trimethoxyN-(2-(1-methylpyrrolidin-2yl)ethyl)benzamide followed by substrate addition and measured after 5 mins by NanoBRET competition binding assay; assay type: cell-based
[2] = biological target: T1, Atypical chemokine receptor 3; test: Binding affinity to NanoLuc tagged human wild type ACKR3 expressed in HEK293G cells using furimazine as NanoLuc substrate preincubated for 1 hr in dark followed by substrate addition and measured after 5 mins by NanoBRET assay; assay type: cell-based; details: time 65.0 min
[3] = biological target: T1, Atypical chemokine receptor 3; test: as §1, with “NanoBRET” for “NanoBRET competition binding”; assay type: cell-based
[4] = biological target: T1, Atypical chemokine receptor 3; test: Binding affinity to ACKR3 (unknown origin) by [125I] CXCL12 displacement assay
[5] = biological target: T1, Atypical chemokine receptor 3; test: (§2) Binding affinity to N-terminal SNAP-tagged ACKR3 (unknown origin) transfected in HEK293T cells assessed as internalization by measuring receptor colocalized intracellular fluorescence at 50 to 100 nM incubated for 30 mins by confocal microscopic analysis; assay type: cell-based; details: dose 50-100 nM
[6] = biological target: T1, Atypical chemokine receptor 3; test: as §2, with “nM preincubated with (R)-N-(3-(2-fluorophenyl)-2-methylallyl)-3,4,5-trimethoxy-N-(2-(1-methylpyrrolidin-2-yl)ethyl)benzamide for 30 mins followed by fluorescent compound addition and further” for “nM”; assay type: cell-based; details: dose 50-100 nM

T1 sequence (P25106 whole entry): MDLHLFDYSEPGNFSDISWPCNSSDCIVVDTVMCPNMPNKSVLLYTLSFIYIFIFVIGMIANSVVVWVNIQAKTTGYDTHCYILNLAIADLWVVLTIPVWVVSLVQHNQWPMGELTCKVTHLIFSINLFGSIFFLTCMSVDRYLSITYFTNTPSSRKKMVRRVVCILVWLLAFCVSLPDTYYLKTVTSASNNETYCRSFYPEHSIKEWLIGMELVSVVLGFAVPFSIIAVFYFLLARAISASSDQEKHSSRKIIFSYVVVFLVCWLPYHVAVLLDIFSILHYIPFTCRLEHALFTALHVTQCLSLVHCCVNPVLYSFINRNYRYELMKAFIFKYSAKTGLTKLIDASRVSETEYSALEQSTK

SMILES | Ki [1] | Activity [2] | Kd [3] | other results
Cc1ccc(C(=O)c2cn(Cc3cccc(Br)n3)c3ccccc3c2=O)cc1C | 39.8 nM | – | – | –
COc1cc(C(=O)N(CC[C@H]2CCCN2C)C/C(C)=C/c2ccccc2F)cc(OC)c1OC | – | – | – | EC50 [4]: 5.01 nM
COc1ccc(C(=O)N(CCC2CCCN2C)C/C(C)=C/c2ccccc2F)cc1OC (centres undefined) | 251 nM | – | – | –
C/C(=C\c1ccccc1)CN(CCC1CCCN1C)C(=O)c1ccc2c(c1)OCCO2 (centres undefined) | 10000 nM | – | – | –
COc1ccc(C(=O)N(CCC2CCCN2C)C/C(C)=C/c2cccc(F)c2)cc1OC (centres undefined) | 631 nM | – | – | –
COc1cc(C(=O)N(CC[C@@H]2CCCN2C)C/C(C)=C/c2ccccc2F)cc(OC)c1OC | – | – | – | EC50 [4]: 20 nM

Further lines, with some results ahead:

Ki [1] | Activity [2] | Kd [3] | SMILES | other results
– | Active | 151 nM | COc1cc(C(=O)N(CC[C@H]2CCCN2C)C/C(C)=C/c2ccccc2F)cc(OCCOCCOCCNC(=O)CCCCCNC(=O)CCC2=[N+]3C(C=C2)Cc2c(C)cc(C)n2[B-]3(F)F)c1OC (some centres undefined) | –
– | Active | 81.3 nM | COc1cc(C(=O)N(CC[C@H]2CCCN2C)C/C(C)=C/c2ccccc2F)cc(OCCOCCNC(=O)CCCCCNC(=O)CCC2=[N+]3C(=Cc4c(C)cc(C)n4[B-]3(F)F)C=C2)c1OC | –
– | Active | 12.9 nM | COc1cc(C(=O)N(CC[C@H]2CCCN2C)C/C(C)=C/c2ccccc2F)cc(OCCNC(=O)CCCCCNC(=O)CCC2=[N+]3C(=Cc4c(C)cc(C)n4[B-]3(F)F)C=C2)c1OC | Activity [5]: Active; Activity [6]: inactive
